Series [1] concerns MDA-MB-231 breast cancer cells. The series is described as follows: Wound healing assay (scratch method), cell migration. Type of series: cell-based, human. As to conditions: Homo sapiens; percent relative migration at 10 μM after 24 h, relative to control, MDA-MB-231.
For another series, the system named is breast cancer cell. Kind of series: Breast cancer cell viability (cell line not given). Type of series: cell-based. As to conditions: breast cancer cells, at concentrations ≥1 μM.

Structures are written as SMILES.

As to `CCn1c2ccccc2c2cc(C(=O)Nc3cccnc3N3CCOCC3)ccc21` [Compound 11b, 9-Ethyl-9H-carbazole-3-carboxylic Acid (2-morpholin-4-yl-pyridin-3-yl)-amide], the activity at 10 µM in series [1] is 66 ± 7.43%. In addition, the “inhibition of breast cancer cell viability” value in the series on breast cancer cell is reported as 45%.

Source of the values: patent US11446299B2, “Carbazole EHop-016 derivatives as anticancer and anti-migratory agents” (UNIVERSITY OF PUERTO RICO, priority 2017, dated 2022).
